# pIC50: −log10 of the molar value.
# Key:
# Tankyrase 1/2 [1] = target: T1, Tankyrase 1/2 (Homo sapiens, UniProt Q9H2K2+O95271); test: Inhibition of tankyrase in human SW480 cells assessed as degradation of total beta-catenin after 40 to 48 hrs; format: cell-based
# T1 sequence (Q9H2K2 whole entry): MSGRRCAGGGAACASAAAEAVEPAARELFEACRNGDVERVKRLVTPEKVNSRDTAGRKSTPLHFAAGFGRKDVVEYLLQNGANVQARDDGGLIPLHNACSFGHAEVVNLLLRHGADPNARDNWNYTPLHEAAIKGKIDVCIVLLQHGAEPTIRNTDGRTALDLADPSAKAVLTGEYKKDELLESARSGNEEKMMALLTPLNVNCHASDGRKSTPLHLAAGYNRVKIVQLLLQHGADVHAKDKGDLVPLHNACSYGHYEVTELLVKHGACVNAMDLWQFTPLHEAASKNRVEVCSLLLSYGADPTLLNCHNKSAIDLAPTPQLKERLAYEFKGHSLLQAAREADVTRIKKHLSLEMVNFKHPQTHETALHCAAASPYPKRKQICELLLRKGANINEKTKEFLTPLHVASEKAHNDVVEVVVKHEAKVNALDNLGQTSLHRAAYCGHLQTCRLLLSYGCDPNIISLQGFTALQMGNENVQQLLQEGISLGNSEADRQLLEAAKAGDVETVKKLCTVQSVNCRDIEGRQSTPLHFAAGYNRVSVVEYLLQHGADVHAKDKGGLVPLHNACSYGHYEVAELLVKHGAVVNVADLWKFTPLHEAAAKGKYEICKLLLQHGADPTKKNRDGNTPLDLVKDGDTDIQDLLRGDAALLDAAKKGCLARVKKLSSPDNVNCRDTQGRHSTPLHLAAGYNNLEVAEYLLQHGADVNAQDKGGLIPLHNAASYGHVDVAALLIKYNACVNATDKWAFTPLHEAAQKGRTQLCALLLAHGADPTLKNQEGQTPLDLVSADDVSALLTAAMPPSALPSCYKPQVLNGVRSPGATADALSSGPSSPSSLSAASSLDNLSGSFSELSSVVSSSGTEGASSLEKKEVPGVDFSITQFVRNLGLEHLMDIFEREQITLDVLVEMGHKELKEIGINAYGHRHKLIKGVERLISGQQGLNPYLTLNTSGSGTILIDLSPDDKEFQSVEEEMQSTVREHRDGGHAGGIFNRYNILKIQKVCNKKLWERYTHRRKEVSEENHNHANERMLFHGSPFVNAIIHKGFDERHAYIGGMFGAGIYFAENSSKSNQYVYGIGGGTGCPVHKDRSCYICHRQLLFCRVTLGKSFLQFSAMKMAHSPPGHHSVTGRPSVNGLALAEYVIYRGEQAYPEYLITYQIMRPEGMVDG
# T1 sequence (O95271 whole entry): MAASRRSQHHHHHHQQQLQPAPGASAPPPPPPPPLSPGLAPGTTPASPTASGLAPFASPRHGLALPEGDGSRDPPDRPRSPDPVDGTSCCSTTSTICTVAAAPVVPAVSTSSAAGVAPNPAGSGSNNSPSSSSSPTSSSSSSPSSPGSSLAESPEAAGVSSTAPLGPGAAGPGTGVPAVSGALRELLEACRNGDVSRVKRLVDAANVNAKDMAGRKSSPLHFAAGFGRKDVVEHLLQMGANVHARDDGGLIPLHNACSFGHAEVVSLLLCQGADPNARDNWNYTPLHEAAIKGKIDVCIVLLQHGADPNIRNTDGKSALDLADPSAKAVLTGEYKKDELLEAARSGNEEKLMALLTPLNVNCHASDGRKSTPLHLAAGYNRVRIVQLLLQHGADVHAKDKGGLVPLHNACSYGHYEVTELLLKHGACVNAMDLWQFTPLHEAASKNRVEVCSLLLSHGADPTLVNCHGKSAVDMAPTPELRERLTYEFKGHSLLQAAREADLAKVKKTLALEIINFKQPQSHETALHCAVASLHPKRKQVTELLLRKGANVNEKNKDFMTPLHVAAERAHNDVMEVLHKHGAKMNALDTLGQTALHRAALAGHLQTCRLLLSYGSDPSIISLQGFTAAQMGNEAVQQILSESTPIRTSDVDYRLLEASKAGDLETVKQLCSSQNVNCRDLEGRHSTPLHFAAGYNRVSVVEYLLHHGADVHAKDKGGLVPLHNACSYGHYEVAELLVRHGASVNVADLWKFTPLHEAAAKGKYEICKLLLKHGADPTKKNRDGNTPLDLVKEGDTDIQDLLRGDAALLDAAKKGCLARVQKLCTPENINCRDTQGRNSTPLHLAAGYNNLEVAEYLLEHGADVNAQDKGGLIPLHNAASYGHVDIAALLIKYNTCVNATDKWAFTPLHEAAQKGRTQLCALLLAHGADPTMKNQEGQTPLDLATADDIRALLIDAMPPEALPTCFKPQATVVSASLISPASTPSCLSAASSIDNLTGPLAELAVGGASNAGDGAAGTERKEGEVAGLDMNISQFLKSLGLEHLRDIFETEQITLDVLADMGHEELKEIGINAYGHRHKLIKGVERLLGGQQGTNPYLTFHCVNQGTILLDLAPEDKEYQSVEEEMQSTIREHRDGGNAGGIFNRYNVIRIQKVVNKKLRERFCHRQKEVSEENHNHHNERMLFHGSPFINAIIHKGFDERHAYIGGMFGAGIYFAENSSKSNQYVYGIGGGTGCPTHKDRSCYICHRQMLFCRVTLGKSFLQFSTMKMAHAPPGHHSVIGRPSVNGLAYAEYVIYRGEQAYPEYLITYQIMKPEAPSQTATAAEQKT
# [2] = target: T2, Poly [ADP-ribose] polymerase tankyrase-1 (Homo sapiens, UniProt O95271); test: Inhibition of recombinant 6XHis-tagged TNKS1 (1091 to 1325) (unknown origin) after 60 mins by spectrophotometric analysis
# T2 sequence (O95271 whole entry): T1 sequence (O95271 whole entry)
# Tankyrase 1/2 [3] = target: T1, Tankyrase 1/2; test: Inhibition of tankyrase in human DLD1 cells assessed as inhibition of Wnt gene transcription after 40 to 48 hrs by STF assay; format: cell-based; settings: dld-1
# Tankyrase 1/2 [4] = target: T1, Tankyrase 1/2; test: Inhibition of tankyrase in human SW480 cells assessed as axin2 accumulation after 24 hrs by Hoechst dye-based assay; format: cell-based
# [5] = target: Poly [ADP-ribose] polymerase 2 (Homo sapiens, UniProt Q9UGN5); test: Inhibition of PARP2 (unknown origin)
# Sequence of Poly [ADP-ribose] polymerase 2 (Q9UGN5 whole entry): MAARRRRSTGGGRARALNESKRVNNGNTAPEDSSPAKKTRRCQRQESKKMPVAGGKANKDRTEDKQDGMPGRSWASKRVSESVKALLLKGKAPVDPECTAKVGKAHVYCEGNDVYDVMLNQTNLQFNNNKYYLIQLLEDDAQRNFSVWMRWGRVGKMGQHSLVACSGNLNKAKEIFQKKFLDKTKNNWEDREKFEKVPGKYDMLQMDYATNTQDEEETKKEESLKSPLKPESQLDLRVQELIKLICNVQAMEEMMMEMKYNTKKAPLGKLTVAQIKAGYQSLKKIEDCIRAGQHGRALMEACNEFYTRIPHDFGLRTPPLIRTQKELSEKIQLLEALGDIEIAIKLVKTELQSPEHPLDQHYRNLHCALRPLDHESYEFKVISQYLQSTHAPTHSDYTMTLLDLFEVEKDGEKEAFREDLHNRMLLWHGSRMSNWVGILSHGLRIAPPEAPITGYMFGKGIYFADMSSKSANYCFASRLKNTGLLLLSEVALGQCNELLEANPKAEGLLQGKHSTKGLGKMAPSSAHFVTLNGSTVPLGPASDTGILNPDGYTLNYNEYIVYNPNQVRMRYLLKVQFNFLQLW
# [6] = target: Poly [ADP-ribose] polymerase 1 (Homo sapiens, UniProt P09874); test: Inhibition of PARP1 (unknown origin)
# Sequence of Poly [ADP-ribose] polymerase 1 (P09874 whole entry): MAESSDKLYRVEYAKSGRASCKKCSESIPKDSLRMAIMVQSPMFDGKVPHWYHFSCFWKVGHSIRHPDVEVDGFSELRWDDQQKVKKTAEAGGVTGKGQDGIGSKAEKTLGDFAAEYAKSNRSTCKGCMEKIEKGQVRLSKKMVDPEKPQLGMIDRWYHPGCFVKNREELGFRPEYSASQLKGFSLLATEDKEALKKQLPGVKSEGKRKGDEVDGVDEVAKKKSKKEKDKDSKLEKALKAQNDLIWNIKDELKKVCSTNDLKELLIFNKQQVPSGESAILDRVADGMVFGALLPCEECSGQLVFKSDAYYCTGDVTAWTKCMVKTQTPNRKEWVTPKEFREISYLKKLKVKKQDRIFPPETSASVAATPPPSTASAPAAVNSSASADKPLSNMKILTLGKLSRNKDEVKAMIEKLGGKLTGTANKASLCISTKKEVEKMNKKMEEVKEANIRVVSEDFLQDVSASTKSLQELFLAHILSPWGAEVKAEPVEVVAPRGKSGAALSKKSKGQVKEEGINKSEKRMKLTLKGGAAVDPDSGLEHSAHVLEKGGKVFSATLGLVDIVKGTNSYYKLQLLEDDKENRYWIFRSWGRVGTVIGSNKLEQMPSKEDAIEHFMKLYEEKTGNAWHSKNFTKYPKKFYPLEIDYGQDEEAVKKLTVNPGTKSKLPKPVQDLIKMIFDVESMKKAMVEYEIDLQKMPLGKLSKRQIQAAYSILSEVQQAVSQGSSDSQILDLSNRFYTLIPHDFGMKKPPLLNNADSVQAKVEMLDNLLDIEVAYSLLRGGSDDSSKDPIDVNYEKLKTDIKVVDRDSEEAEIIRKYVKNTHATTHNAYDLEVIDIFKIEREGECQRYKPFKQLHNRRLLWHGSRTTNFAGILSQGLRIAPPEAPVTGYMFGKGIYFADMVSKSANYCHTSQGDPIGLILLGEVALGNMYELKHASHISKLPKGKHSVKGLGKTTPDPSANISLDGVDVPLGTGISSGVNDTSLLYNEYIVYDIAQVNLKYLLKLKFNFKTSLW
IC50 (Tankyrase 1/2 [1]),pIC50 [2],IC50 (Tankyrase 1/2 [3]),EC50 (Tankyrase 1/2 [4]),pIC50 [5],pIC50 [6],SMILES
2 µM,6.82,,,,,CC1(C)CC(=O)Nc2cc(NC(=O)c3cc(-c4ccc5nc(N)ncc5c4)ccc3F)ccc21
0.392 µM,8.05,0.043 µM,0.474 µM,< 3.77,< 4.07,CC1(C)OC(=O)N([C@H]2CC[C@H](c3cnc(N)c(C#N)c3)CC2)[C@H]1c1ccccc1
,6.83,,,,,CC1(C)OC(=O)N([C@H]2CC[C@H](c3ccc(N)nc3)CC2)[C@H]1c1ccccc1

# Reference: ChEMBL document CHEMBL3098003, “Structure-based design of 2-aminopyridine oxazolidinones as potent and selective tankyrase inhibitors” (ACS Med Chem Lett, 2013)
